The source of these data is BindingDB's records for doi:10.1016/j.bmcl.2017.09.048 (St. John'S University, 2017).

A short description of experiment [1]: Inhibition of ABL T315I mutant in mouse BAF3 cells assessed as reduction in cell viability after 72 hrs by MTT assay.
A short description of experiment [2]: Inhibition of ABL in mouse BAF3 cells assessed as reduction in cell viability after 72 hrs by MTT assay.

One may read the IC50 as the concentration needed to halve the response being measured. Regarding `COc1cc(N2CCN(C)CC2)ccc1Nc1ncc(Cl)c(Oc2ccc(NC(C)=O)cc2)n1`, the IC50 in experiment [1] was found to be 2.89 µM; in experiment [2] it was 2.08 µM.
`C=CC(=O)Nc1ccc(Oc2nc(Nc3ccc(N4CCN(C)CC4)cc3OC)ncc2Cl)cc1`: the IC50 came to 7.7 µM in experiment [1] and 6.39 µM in experiment [2].
On to `COc1cc(N2CCN(C)CC2)ccc1Nc1ncc(Cl)c(Oc2cccc(NC(C)=O)c2)n1`, for which the IC50 worked out at 5.56 µM in experiment [1] and 2.91 µM in experiment [2].
As for `COc1cc(N2CCN(C)CC2)ccc1Nc1ncc(Cl)c(Oc2ccccc2NC(=O)COCc2ccccc2)n1`, the IC50 in experiment [1] worked out at 3.5 µM; in experiment [2], 1.37 µM.
For `COc1cc(N2CCN(C)CC2)ccc1Nc1ncc(Cl)c(Oc2ccccc2N=C=S)n1`, in that order: 8.99 µM and 5.56 µM.
In the case of `COc1cc(N2CCN(C)CC2)ccc1Nc1ncc(Cl)c(Oc2cccc(N)c2)n1`, the results for the IC50 in experiment [1] and in experiment [2] were 1.96 µM and 1.9 µM, respectively.
In the same order, the values of `COc1cc(N2CCN(C)CC2)ccc1Nc1ncc(Cl)c(Oc2ccccc2NC(=O)CCOCc2ccccc2)n1` are 3.06 µM and 3.12 µM.
`COc1cc(N2CCN(C)CC2)ccc1Nc1ncc(Cl)c(Oc2ccccc2N)n1`: the values for the IC50 in experiment [1] and in experiment [2] were 5.74 µM and 6.73 µM, respectively.
Consider `COc1cc(N2CCN(C)CC2)ccc1Nc1ncc(Cl)c(Oc2ccccc2N=[N+]=[N-])n1`, for which the half-maximal inhibitory concentration (IC50) worked out at 1.33 µM in experiment [1] and 1.45 µM in experiment [2].
Consider `C=CC(=O)Nc1cccc(Oc2nc(Nc3ccc(N4CCN(C)CC4)cc3OC)ncc2Cl)c1`, for which the IC50 in experiment [1] came out at 16.3 µM; in experiment [2], 9.69 µM.
For `COc1cc(N2CCN(C)CC2)ccc1Nc1ncc(Cl)c(Oc2ccc(NC(=O)CO)cc2)n1`, in that order: 2.74 µM and 6.68 µM.
In the same order, the values of `COc1cc(N2CCN(C)CC2)ccc1Nc1ncc(Cl)c(Oc2ccc(NC(=O)COCc3ccccc3)cc2)n1` are 3.62 µM and 2.11 µM.
For `COc1cc(N2CCN(C)CC2)ccc1Nc1ncc(Cl)c(Oc2cccc(N=[N+]=[N-])c2)n1`, in that order: 4.67 µM and 3.87 µM.
As for `COc1cc(N2CCN(C)CC2)ccc1Nc1ncc(Cl)c(Oc2ccccc2NC(=O)CO)n1`, the IC50 was determined as 4.18 µM in experiment [1] and 2.07 µM in experiment [2].
On to `COc1cc(N2CCN(C)CC2)ccc1Nc1ncc(Cl)c(Oc2ccc(N=C=S)cc2)n1`, for which the IC50 in experiment [1] stood at 9.53 µM; in experiment [2], 7.5 µM.
`COc1cc(N2CCN(C)CC2)ccc1Nc1ncc(Cl)c(Oc2cccc([N+](=O)[O-])c2)n1`: the results for the IC50 in experiment [1] and in experiment [2] were 9.15 µM and 6.8 µM, respectively.
Take `COc1cc(N2CCN(C)CC2)ccc1Nc1ncc(Cl)c(Oc2cccc(NC(=O)CCOCc3ccccc3)c2)n1`: the results for the IC50 in experiment [1] and in experiment [2] were 2.49 µM and 2.47 µM, respectively.
For `COc1cc(N2CCN(C)CC2)ccc1Nc1ncc(Cl)c(Oc2ccccc2NC(=O)/C=C/CN(C)C)n1`, in that order: 8.12 µM and 9.1 µM.
On to `COc1cc(N2CCN(C)CC2)ccc1Nc1ncc(Cl)c(Oc2cccc(NC(=O)COCc3ccccc3)c2)n1`, for which the IC50 in experiment [1] came to 2.87 µM; in experiment [2], 2.44 µM.
Consider `COc1cc(N2CCN(C)CC2)ccc1Nc1ncc(Cl)c(Oc2ccc(N=[N+]=[N-])cc2)n1`, for which the values for the IC50 in experiment [1] and in experiment [2] were 15.1 µM and 13.1 µM, respectively.
In the case of `COc1cc(N2CCN(C)CC2)ccc1Nc1ncc(Cl)c(Oc2ccc(NC(=O)CCOCc3ccccc3)cc2)n1`, the IC50 in experiment [1] worked out at 1.5 µM; in experiment [2] it was 1.43 µM.
Regarding `COc1cc(N2CCN(C)CC2)ccc1Nc1ncc(Cl)c(Oc2ccc(N)cc2)n1`, the IC50 was found to be 5.47 µM in experiment [1] and 2.81 µM in experiment [2].
In the same order, the values of `COc1cc(N2CCN(C)CC2)ccc1Nc1ncc(Cl)c(Oc2ccccc2NC(=O)CCO)n1` are 3.86 µM and 2.12 µM.
Turning to `C=CC(=O)Nc1ccccc1Oc1nc(Nc2ccc(N3CCN(C)CC3)cc2OC)ncc1Cl`, the values for the IC50 in experiment [1] and in experiment [2] were 2.37 µM and 2.92 µM, respectively.
In the same order, the values of `COc1cc(N2CCN(C)CC2)ccc1Nc1ncc(Cl)c(Oc2ccc(NC(=O)/C=C/CN(C)C)cc2)n1` are 3.41 µM and 4.72 µM.
`COc1cc(N2CCN(C)CC2)ccc1Nc1ncc(Cl)c(Oc2cccc(NC(=O)CCO)c2)n1`: the figures for the IC50 in experiment [1] and in experiment [2] were 1.39 µM and 2.07 µM, respectively.
Turning to `COc1cc(N2CCN(C)CC2)ccc1Nc1ncc(Cl)c(Oc2cccc(N=C=S)c2)n1`, the IC50 in experiment [1] is 4.99 µM; in experiment [2] it was 8.41 µM.
With `COc1cc(N2CCN(C)CC2)ccc1Nc1ncc(Cl)c(Oc2ccc(NC(=O)CCO)cc2)n1`, the IC50 turned out to be 3.35 µM in experiment [1] and 3.25 µM in experiment [2].
As for `COc1cc(N2CCN(C)CC2)ccc1Nc1ncc(Cl)c(Oc2ccc([N+](=O)[O-])cc2)n1`, the IC50 in experiment [1] was 6.89 µM; in experiment [2], 3.48 µM.
Turning to `COc1cc(N2CCN(C)CC2)ccc1Nc1ncc(Cl)c(Oc2ccccc2[N+](=O)[O-])n1`, the IC50 in experiment [1] is 11.6 µM; in experiment [2], 6.81 µM.
In the same order, the values of `COc1cc(N2CCN(C)CC2)ccc1Nc1ncc(Cl)c(Oc2ccccc2NC(C)=O)n1` are 4.73 µM and 8.49 µM.
For `COc1cc(N2CCN(C)CC2)ccc1Nc1ncc(Cl)c(Oc2cccc(NC(=O)/C=C/CN(C)C)c2)n1`, in that order: 6.02 µM and 7.02 µM.
With `COc1cc(N2CCN(C)CC2)ccc1Nc1ncc(Cl)c(Oc2cccc(NC(=O)CO)c2)n1`, the IC50 in experiment [1] turned out to be 1.12 µM; in experiment [2], 1.48 µM.
